The values below come from US7317037B2, “Progesterone receptor modulators comprising pyrrole-oxindole derivatives and uses thereof” (Wyeth, priority 2004, dated 2008).

The nature of data set [1]: Cynomolgus monkey intravenous pharmacokinetics. The following applies: in vivo, cynomolgus monkeys, 0.25 mg/kg i.v. From the text: Therefore from the preceding data it is clear that the R6=fluorine group present in 5-(7-fluoro-3,3-dimethyl-2-oxo-2,3-dihydro-1H-indol-5-yl)-1-methyl-1H-pyrrole-2-carbonitrile dramatically improves the pharmacokinetic performance of the molecule. This improved pharmacokinetic performance translates in the cynomolgus menses induction assay to a dramatic improvement in activity.

Another data set has as its system menses induction. The experiment in a line: Cynomolgus monkey menses induction assay. The following applies: 5 mg/kg po. It is filed as in vivo. The protocol: C. Cynomolgus Monkey […] Induction 1. Experimental Design The effects of administered compound(s) in either a single dose or a dose-response paradigm versus an appropriate control (vehicle alone) are determined. When a compound is tested at a single dose, a group of four animals will be used for the dose. In the dose response study, each experiment will involve up to 5 groups of animals (a control group and 4 groups of animals treated with varying doses of the compound). Experimental groups will contain 3-4 animals/group, since this sample size is commonly used in the literature and has been found appropriate based on our own experience. The animals are treated with test compounds once or twice daily for 4 days in the mid-luteal phase of the menstrual cycle to assess the efficacy of the compounds on the reproductive parameters menstruation. 2. Procedures Initially, animals are characterized in terms of their reproductive cyclicity by observing time of menstruation. Only those animals with two consecutive normal cycles are used to evaluate test compounds. […] will be determined by daily gross examination for vaginal bleeding. In each experiment, animals will be treated once or twice daily IV, IM, SC or PO with the test compound. Appropriate vehicles will be determined for each route of administration and will be specified through protocol amendments. […]

Data set [2] relates to rat uterine decidualization. The data set can be described thus: Rat decidualization assay. It is filed as in vivo. The following applies: po, read-out: ED50 in the rat decidual assay. On the procedure: B. Progestational and Antiprogestational Activity in Mature Ovariectomized Rats (Rat Decidualization Assay)
This assay is used to evaluate the effect of progestins and antiprogestins on rat uterine decidualization and compare the relative potencies of various test compounds.
Test compounds are dissolved in 100% ethanol and mixed with corn oil (vehicle). Stock solutions of the test compounds in oil (Mazola™) are then prepared by heating (˜80° C.) the mixture to evaporate ethanol. Test compounds are subsequently diluted with 100% corn oil or 10% ethanol in corn oil prior to the treatment of animals. No difference in decidual response is found when these two vehicles are compared. […]
Approximately 24 hr after the third injection, decidualization is induced in one of the uterine horns of anesthetized rats by scratching the antimesometrial luminal epithelium with a blunt 21 G needle. […] Approximately 24 hr following the final treatment, rats are sacrificed by […] and bodyweight measured. […]
In agonist mode, the increase in weight of the decidualized uterine horn is calculated by D-horn/C-horn and logarithmic transformation is used to maximize normality and homogeneity of variance. […] EC50 is calculated from the transformed value. […] IC50 is calculated from the retransformed value. […]

SMILES strings stand for the structures.

The term ED50 denotes the dose at which the effect has come halfway, by size or by number of responders. For `Cn1c(C#N)ccc1-c1ccc2c(c1)C(C)(C)C(=O)N2` [5-(3,3-Dimethyl-2-oxo-2,3-dihydro-1H-indol-5-yl)-1-methyl-1H-pyrrole-2-carbonitrile, reference compound], in data set [1] (read-out: exposure (AUC0-∞)), the AUC(0-inf) is 343 ng·h/mL. The half-life in data set [1] (read-out: mean half life (t1/2) (converted)) is 2.1 h. For the same compound, the “induction of early onset of menses” value with menses induction was “not active”. For the same compound, the ED50 in data set [2] was 0.2 mg/kg.
